Data reported in patent US20130281361A1, “METHODS OF TREATING AND PREVENTING RHINOVIRUS INFECTION” (priority 2010, published 2013).
Entries after “also recorded” stand apart in the source; their conditions may differ. No end group written: not given here.

Tests used:
adenovirus = settings: background literature; cited from earlier work
papillomavirus = settings: background literature; cited from earlier work
rhinovirus (Rv16) = experiment: Rhinovirus (Rv16) infectivity: virus incubated with peptide, titer quantified by TCID50 assay using H1-HeLa cells; type: cell-based; settings: for concentration at which maximal efficacy was reached / reduction of rhinovirus titer at maximal efficacy: Rv16, 1 hour at 37° C.; for reduction of rhinovirus titer at maximal efficacy: at the concentration given under E5
Method: To determine if β-defensins had antiviral activity against rhinovirus, recombinant human β-defensins (Peprotech, Rocky Hill, N.J.) were used in assays with rhinovirus (Rv16). Recombinant β-defensin proteins were diluted in PBS to the desired concentrations (0.25-1.25 μg/mL). Virus was added to each tube to a final volume of 40 μL and incubated for 1 hour at 37° C. plus 5% CO2. After incubation, 200 uL of cell culture media was added to each tube and viral titers were quantified in a 50% Tissue Culture Infectious Dose (TCID50) assay using H1-HeLa cells. The TCID50 assay is a standard endpoint dilution assay that is used to quantify how much of a given virus is present in a sample. The limit of detection for rhinovirus in the assay was 1.2 log10 TCID50.
Human α-defensins and LL-37, a broadly expressed antimicrobial peptide from the cathelicidin family, were also tested for antiviral activity against rhinovirus. Recombinant human α-defensins (HNP-1, HNP-3 and HNP-5) (Pepnet, Louisville, Ky.) and recombinant LL-37 (Pepnet, Louisville, Ky.) were used in assays with rhinovirus (Rv16) to determine their antiviral activity. Recombinant HBD-3 (Peprotech, Rocky Hill, N.J.) was used as a control. The recombinant proteins were diluted in PBS to the desired concentrations (see FIG. 2). Virus was added to each tube to a final volume of 40 μL and incubated for 1 hour at 37° C. plus 5% CO2. After incubation, 200 μL of cell culture media was added to each tube and the concentration of virus was quantified by TCID50 assay using H1-HeLa cells. The limit of detection for rhinovirus in the assay was 1.2 log10 TCID50/mL.

rhinovirus = settings: Proud et al., J Immunol 172:4637-4645, 2004; cited from earlier work

Molecule | antiviral activity against adenovirus (adenovirus) | antiviral activity against papillomavirus (papillomavirus) | antiviral activity against rhinovirus (Rv16), in words (rhinovirus (Rv16); Example 2, FIG. 2) | concentration at which maximal efficacy was reached (rhinovirus (Rv16); Example 2, FIG. 2) [µg/mL] | reduction of rhinovirus titer at maximal efficacy (rhinovirus (Rv16); Example 2, FIG. 2) [Log10 TCID50/mL] | antiviral activity against rhinovirus (Rv16), in words (rhinovirus (Rv16); Example 1, FIG. 1) | ability to inactivate rhinovirus (rhinovirus)
human defensin 5 (ATCYCRTGRCATRESLSGVCEISGRLYRLCCR; ends and bridges not checked; cysteine pairing not given here; UniProt Q01523 63-94, looked up, fragment) [HD5, human α-defensin] | antiviral activity was observed | antiviral activity was observed | – | – | – | – | –
human neutrophil peptide 1 [HNP-1] | antiviral activity was observed | antiviral activity was observed | exhibited antiviral activity | 5 | 1 | – | –
human neutrophil peptide 3 [HNP-3] | – | – | exhibited antiviral activity | 2.5 | 2.3 | – | –
human β-defensin 1 (DHYNCVSSGGQCLYSACPIFTKIQGTCYRGKAKCCK; ends and bridges not checked; cysteine pairing not given here; UniProt P60022 33-68, looked up) [HBD-1, recombinant human β-defensin (Peprotech)] | antiviral activity was observed | antiviral activity was observed | – | – | – | significantly reduced viral concentration; also recorded: exhibited antiviral activity | –
human β-defensin 2 [HBD-2] | not | not | – | – | – | significantly reduced viral concentration; also recorded: exhibited antiviral activity | unable to inactivate rhinovirus
human β-defensin 3 (GIINTLQKYYCRVRGGRCAVLSCLPKEEQIGKCSTRGRKCCRRKK; ends and bridges not checked; cysteine pairing not given here; UniProt P81534 23-67, looked up) [HBD-3, recombinant human β-defensin (Peprotech)] | – | – | most susceptible | – | – | significantly reduced viral concentration; also recorded: exhibited antiviral activity | –
human β-defensin 4 (EFELDRICGYGTARCRKKCRSQEYRIGRCPNTYACCLRKWDESLLNRTKP; ends and bridges not checked; cysteine pairing not given here; UniProt Q8WTQ1 23-72, looked up) [HBD-4, recombinant human β-defensin (Peprotech)] | – | – | – | – | – | significantly reduced viral concentration; also recorded: exhibited antiviral activity | –
HNP-5: recombinant human α-defensin (Pepnet), α-5; probably human defensin 5 (HD5) (protein, UniProt Q01523 20-94, looked up, Defensin-5 recombinant) Defensin alpha 5: ESLQERADEATTQKQSGEDNQDLAISFAGNGLSALRTSGSQARATCYCRTGRCATRESLSGVCEISGRLYRLCCR | – | – | most effective; also recorded: exhibited antiviral activity | 2 | 2.5 | – | –
